Earlier results, collected in US8071133B2, “Oral dosage forms of water insoluble drugs and methods of making the same” (Stiefel Laboratories, Inc., priority 2001, dated 2011).

CC(C)(C)NC(=O)[C@@H]1C[C@@H]2CCCC[C@@H]2CN1C[C@@H](O)[C@H](Cc1ccccc1)NC(=O)[C@H](CC(N)=O)NC(=O)c1ccc2ccccc2n1 [Saquinavir]
solubility in water: approximately 10 microgram per mL
